Test results as given in patent publication US20040037843A1, “Inducing cellular immune responses to prostate cancer antigens using peptide and nucleic acid compositions” (priority 2003, published 2004).

Tests used:
Test in all cases: HLA class I binding assay, purified HLA, inhibition of 125I-labelled probe peptide
HLA-A*0201 = HLA-A*0201 (Homo sapiens, UniProt P04439, D140Y/D185E/D98H/E176V/E277Q/G131W/G231S/I119V/I121R/I166T/I218V/L300P/L318F/N151K/N90K/P208A/P217A/Q86G/Q94H/R138H/R169H/T345S); conditions: A*[…], A2 supermotif cross-reactive binding data
HLA-A*0202 = HLA-A*0202 (Homo sapiens, UniProt P04439, D140Y/D185E/D98H/E176V/E277Q/G131W/G231S/I119L/I121R/I166T/I218V/L180W/L300P/L318F/N151K/N90K/P208A/P217A/Q67R/Q86G/Q94H/R138H/R169H/T345S); conditions: A2 supermotif cross-reactive binding data
HLA-A*0203 = HLA-A*0203 (Homo sapiens, UniProt P04439, A173T/D140Y/D185E/D98H/E277Q/G131W/G231S/I119V/I121R/I166T/I218V/L180W/L300P/L318F/N151K/N90K/P208A/P217A/Q86G/Q94H/R138H/R169H/T345S); conditions: A*[…], A2 supermotif cross-reactive binding data
HLA-A*0206 = HLA-A*0206 (Homo sapiens, UniProt P04439, D140Y/D185E/D98H/E176V/E277Q/F33Y/G131W/G231S/I119V/I121R/I166T/I218V/L300P/L318F/N151K/N90K/P208A/P217A/Q86G/Q94H/R138H/R169H/T345S); conditions: A*[…], A2 supermotif cross-reactive binding data
HLA-A*6802 = HLA-A*6802 (Homo sapiens, UniProt P04439, A269V/D140Y/D185E/E176V/E277Q/E87N/F33Y/G231S/I121R/I166T/I218V/L180W/L300P/L318F/N151K/P208A/P217A/Q86R/R138H/R169H/S129P/T345S/V36M); conditions: A2 supermotif cross-reactive binding data; read-out: A*6802 nM

CC[C@H](C)[C@H](NC(=O)[C@H](Cc1c[nH]c2ccccc12)NC(=O)[C@@H](NC(=O)[C@@H](NC(=O)[C@H](CO)NC(=O)[C@H](CC(C)C)NC(=O)[C@@H](N)[C@@H](C)O)C(C)C)[C@@H](C)O)C(=O)NCC(=O)N[C@H](C(=O)O)C(C)C [Peptide 60.0217]
IC50 (HLA-A*0201): 26 nM
IC50 (HLA-A*0202): 4.9 nM
IC50 (HLA-A*0203): 40 nM
IC50 (HLA-A*0206): 712 nM
IC50 (HLA-A*6802): 229 nM

CSCC[C@H](NC(=O)[C@H](Cc1ccccc1)NC(=O)[C@H](CCCCN)NC(=O)[C@@H](NC(=O)[C@@H](NC(=O)[C@@H](N)CCCCN)C(C)C)[C@@H](C)O)C(=O)N[C@@H](CC(C)C)C(=O)N[C@@H](CS)C(=O)N[C@H](C(=O)O)C(C)C [Peptide 60.0220]
IC50 (HLA-A*0201): 69 nM
IC50 (HLA-A*0202): 518 nM
IC50 (HLA-A*0203): 53 nM
IC50 (HLA-A*0206): 128 nM
IC50 (HLA-A*6802): > 10000 nM

CC[C@H](C)[C@H](NC(=O)[C@H](CO)NC(=O)[C@@H](NC(=O)CN)C(C)C)C(=O)N[C@@H](Cc1c[nH]c2ccccc12)C(=O)N[C@@H](CC(N)=O)C(=O)N1CCC[C@H]1C(=O)N[C@H](C(=O)N[C@@H](CC(C)C)C(=O)N[C@H](C(=O)O)C(C)C)[C@@H](C)CC [Peptide 63.0041]
IC50 (HLA-A*0201): 250 nM
IC50 (HLA-A*0202): 94 nM
IC50 (HLA-A*0206): 451 nM
IC50 (HLA-A*6802): 2290 nM

CC[C@H](C)[C@H](NC(=O)[C@@H]1CCCN1C(=O)[C@H](CCC(N)=O)NC(=O)[C@H](Cc1c[nH]c2ccccc12)NC(=O)[C@H](CC(C)C)NC(=O)[C@H](CC(C)C)NC(=O)[C@H](CC(C)C)NC(=O)[C@@H]1CCCN1)C(=O)N1CCC[C@H]1C(=O)N[C@H](C(=O)O)C(C)C [Peptide 63.0042]
IC50 (HLA-A*0201): 238 nM
IC50 (HLA-A*0202): 47 nM
IC50 (HLA-A*0203): 19 nM
IC50 (HLA-A*0206): 336 nM

CC(C)C[C@H](NC(=O)[C@H](CO)NC(=O)[C@H](CC(C)C)NC(=O)[C@H](CO)NC(=O)[C@H](C)NC(=O)[C@H](C)NC(=O)[C@H](CCCNC(=N)N)NC(=O)[C@H](C)NC(=O)[C@H](CC(C)C)NC(=O)[C@H](CC(C)C)NC(=O)[C@@H](N)CC(C)C)C(=O)O [Peptide 63.0136]
IC50 (HLA-A*0201): 8.1 nM
IC50 (HLA-A*0202): 3.1 nM
IC50 (HLA-A*0203): 5.3 nM
IC50 (HLA-A*0206): 80 nM

CC(C)C[C@H](NC(=O)[C@H](Cc1ccccc1)NC(=O)[C@@H](NC(=O)[C@@H](N)C(C)C)C(C)C)C(=O)N[C@H](C(=O)N[C@@H](CC(C)C)C(=O)N[C@@H](CO)C(=O)N[C@H](C(=O)N[C@H](C(=O)N[C@@H](Cc1c[nH]c2ccccc12)C(=O)N[C@H](C(=O)O)C(C)C)[C@@H](C)O)C(C)C)[C@@H](C)O [Peptide 63.0185]
IC50 (HLA-A*0201): 89 nM
IC50 (HLA-A*0202): 88 nM
IC50 (HLA-A*0203): 71 nM
IC50 (HLA-A*0206): 336 nM
IC50 (HLA-A*6802): > 10000 nM

CC[C@H](C)[C@H](NC(=O)[C@H](Cc1ccccc1)NC(=O)[C@H](C)NC(=O)[C@H](CCCNC(=N)N)NC(=O)[C@H](CCC(=O)O)NC(=O)[C@H](CC(C)C)NC(=O)[C@H](Cc1ccccc1)NC(=O)[C@H](CCSC)NC(=O)[C@H](CC(C)C)NC(=O)[C@@H](N)CCC(N)=O)C(=O)O [Peptide 1126.16]
IC50 (HLA-A*0201): 98 nM
IC50 (HLA-A*0202): 36 nM
IC50 (HLA-A*0203): 91 nM
IC50 (HLA-A*0206): > 10000 nM
IC50 (HLA-A*6802): 30 nM

CC(C)C[C@H](NC(=O)[C@H](CC(=O)O)NC(=O)CNC(=O)[C@H](CCC(=O)O)NC(=O)[C@@H]1CCCN1C(=O)[C@H](CC(C)C)NC(=O)CN)C(=O)N[C@H](C(=O)N[C@@H](Cc1ccc(O)cc1)C(=O)N[C@H](C(=O)O)C(C)C)C(C)C [Peptide 1389.22]
IC50 (HLA-A*0201): 42 nM
IC50 (HLA-A*0202): 2 nM
IC50 (HLA-A*0206): 112 nM
IC50 (HLA-A*6802): 964 nM

CC(C)C[C@H](NC(=O)[C@H](C)N)C(=O)N[C@@H](CO)C(=O)N[C@H](C(=O)NCC(=O)N[C@@H](CS)C(=O)N[C@H](C(=O)NCC(=O)N[C@H](C(=O)O)C(C)C)[C@@H](C)O)C(C)C [Peptide 1418.15]
IC50 (HLA-A*0201): 24 nM
IC50 (HLA-A*0202): 17 nM
IC50 (HLA-A*0203): 9.1 nM
IC50 (HLA-A*0206): 264 nM
IC50 (HLA-A*6802): > 10000 nM

CSCC[C@H](NC(=O)[C@H](CC(=O)O)NC(=O)[C@H](CC(N)=O)NC(=O)[C@H](CO)NC(=O)[C@H](CC(C)C)NC(=O)[C@H](CC(C)C)NC(=O)[C@@H](N)Cc1c[nH]cn1)C(=O)N[C@@H](CS)C(=O)N[C@H](C(=O)O)C(C)C [Peptide 1418.20]
IC50 (HLA-A*0201): 119 nM
IC50 (HLA-A*0202): 102 nM
IC50 (HLA-A*0203): 278 nM
IC50 (HLA-A*0206): 176 nM
IC50 (HLA-A*6802): > 10000 nM

CSCC[C@H](NC(=O)[C@H](Cc1ccccc1)NC(=O)[C@H](CCC(=O)O)NC(=O)[C@@H](NC(=O)[C@@H](NC(=O)[C@@H](N)CCCCN)C(C)C)[C@@H](C)O)C(=O)N[C@@H](CC(C)C)C(=O)N[C@@H](CS)C(=O)N[C@H](C(=O)O)C(C)C [Peptide 1418.21]
IC50 (HLA-A*0201): 53 nM
IC50 (HLA-A*0202): 27 nM
IC50 (HLA-A*0203): 31 nM
IC50 (HLA-A*0206): 34 nM
IC50 (HLA-A*6802): 6670 nM

CC[C@H](C)[C@H](NC(=O)[C@H](CC(=O)O)NC(=O)[C@H](Cc1ccccc1)NC(=O)[C@@H](NC(=O)[C@H](C)N)[C@@H](C)O)C(=O)N[C@@H](CCC(=O)O)C(=O)N[C@@H](CO)C(=O)N[C@@H](CCCCN)C(=O)N[C@H](C(=O)O)C(C)C [Peptide 1418.30]
IC50 (HLA-A*0201): 238 nM
IC50 (HLA-A*0202): 27 nM
IC50 (HLA-A*0203): 44 nM
IC50 (HLA-A*0206): 82 nM
IC50 (HLA-A*6802): 258 nM

CC(C)C[C@H](NC(=O)[C@H](CO)NC(=O)[C@@H](NC(=O)[C@H](CS)NC(=O)[C@H](CCC(N)=O)NC(=O)[C@H](CC(C)C)NC(=O)[C@@H](N)CO)C(C)C)C(=O)N[C@@H](Cc1c[nH]cn1)C(=O)N[C@@H](CC(C)C)C(=O)N[C@H](C(=O)O)C(C)C [Peptide 1418.52]
IC50 (HLA-A*0201): 13 nM
IC50 (HLA-A*0202): 6.3 nM
IC50 (HLA-A*0203): 2.8 nM
IC50 (HLA-A*0206): 5.2 nM
IC50 (HLA-A*6802): 205 nM

CSCC[C@H](NC(=O)[C@H](CC(=O)O)NC(=O)[C@H](CC(N)=O)NC(=O)[C@H](CO)NC(=O)[C@H](CC(C)C)NC(=O)[C@H](CC(C)C)NC(=O)[C@@H](N)Cc1c[nH]cn1)C(=O)N[C@@H](CS)C(=O)N[C@@H](C)C(=O)N[C@@H](CCCNC(=N)N)C(=O)N[C@H](C(=O)O)C(C)C [Peptide 1418.67]
IC50 (HLA-A*0201): 26 nM
IC50 (HLA-A*0202): 1.3 nM
IC50 (HLA-A*0203): 5.3 nM
IC50 (HLA-A*0206): 37 nM
IC50 (HLA-A*6802): 860 nM

CC[C@H](C)[C@H](NC(=O)[C@H](Cc1c[nH]c2ccccc12)NC(=O)[C@@H](NC(=O)[C@@H](NC(=O)[C@H](CO)NC(=O)[C@H](CC(C)C)NC(=O)[C@@H](NC(=O)[C@H](CC(C)C)NC(=O)[C@H](Cc1ccccc1)NC(=O)[C@@H](NC(=O)[C@@H](N)C(C)C)C(C)C)[C@@H](C)O)C(C)C)[C@@H](C)O)C(=O)O [Peptide 1419.25]
IC50 (HLA-A*0202): 159 nM
IC50 (HLA-A*0203): 63 nM
IC50 (HLA-A*0206): 2850 nM
IC50 (HLA-A*6802): > 10000 nM

CC(C)C[C@H](NC(=O)[C@@H](N)Cc1ccccc1)C(=O)N[C@@H](CC(N)=O)C(=O)N[C@@H](CCC(=O)O)C(=O)N[C@@H](CO)C(=O)N[C@@H](Cc1ccc(O)cc1)C(=O)N[C@@H](CCCCN)C(=O)N[C@@H](Cc1c[nH]cn1)C(=O)N[C@@H](CCC(=O)O)C(=O)N[C@@H](CCC(N)=O)C(=O)N[C@H](C(=O)O)C(C)C [Peptide 1419.55]
IC50 (HLA-A*0202): 1.4 nM
IC50 (HLA-A*0203): 5.6 nM
IC50 (HLA-A*0206): 381 nM
IC50 (HLA-A*6802): 6150 nM

CC(C)C[C@H](NC(=O)[C@H](CC(C)C)NC(=O)[C@H](Cc1c[nH]cn1)NC(=O)[C@H](CC(C)C)NC(=O)[C@H](CO)NC(=O)[C@@H](NC(=O)[C@H](CS)NC(=O)[C@H](CCC(N)=O)NC(=O)[C@H](CC(C)C)NC(=O)[C@@H](N)CO)C(C)C)C(=O)O [Peptide 1419.66]
IC50 (HLA-A*0201): 263 nM
IC50 (HLA-A*0202): 4.9 nM
IC50 (HLA-A*0203): 71 nM
IC50 (HLA-A*0206): 446 nM
IC50 (HLA-A*6802): 5000 nM

H-LLSNDMCARV-OH [Peptide 1418.53]
IC50 (HLA-A*0201): 5.3 nM
IC50 (HLA-A*0202): 0.7 nM
IC50 (HLA-A*0206): 10 nM
IC50 (HLA-A*6802): 1700 nM

H-SLHLLSNDMCV-OH [Peptide 1418.66]
IC50 (HLA-A*0201): 8.6 nM
IC50 (HLA-A*0202): 0.8 nM
IC50 (HLA-A*0203): 10 nM
IC50 (HLA-A*0206): 2310 nM
IC50 (HLA-A*6802): 2160 nM
